# Experimental data taken from US6313171A, “Method for preventing or treating elevated blood lipid level-related diseases by administering cinnamic acid derivatives” (Korea Research Institute of Bioscience & Biotechnology, priority 1998, dated 2001).
# Tested on: ACAT
# Test: ACAT assay, liver microsomes of the fed rabbits
# Format: biochemical, rabbit
# Conditions: rabbits fed 0.1% in 1% cholesterol diet; Control 0
row,SMILES,Inhibition on ACAT activity
1,"O=C(O)CCc1ccc(O)c(O)c1 [3,4-dihydroxyhydrocinnamic acid]",37%
2,"O=C(O)/C=C/c1ccc(O)cc1 [4-Hydroxycinnamic acid, 4-hydroxycinnamic acid]",9%
3,"O=C(O)/C=C/c1ccc(O)c(O)c1 [3,4-dihydroxycinnamic acid]",33%

# Target: T1, ACAT (Rattus norvegicus, UniProt Q7TQM4)
# T1 construct: microsomes were separated from liver tissues to be used as an enzyme source; from tissue; host or cells: rat liver microsomes
# T1 sequence (Q7TQM4 1-524): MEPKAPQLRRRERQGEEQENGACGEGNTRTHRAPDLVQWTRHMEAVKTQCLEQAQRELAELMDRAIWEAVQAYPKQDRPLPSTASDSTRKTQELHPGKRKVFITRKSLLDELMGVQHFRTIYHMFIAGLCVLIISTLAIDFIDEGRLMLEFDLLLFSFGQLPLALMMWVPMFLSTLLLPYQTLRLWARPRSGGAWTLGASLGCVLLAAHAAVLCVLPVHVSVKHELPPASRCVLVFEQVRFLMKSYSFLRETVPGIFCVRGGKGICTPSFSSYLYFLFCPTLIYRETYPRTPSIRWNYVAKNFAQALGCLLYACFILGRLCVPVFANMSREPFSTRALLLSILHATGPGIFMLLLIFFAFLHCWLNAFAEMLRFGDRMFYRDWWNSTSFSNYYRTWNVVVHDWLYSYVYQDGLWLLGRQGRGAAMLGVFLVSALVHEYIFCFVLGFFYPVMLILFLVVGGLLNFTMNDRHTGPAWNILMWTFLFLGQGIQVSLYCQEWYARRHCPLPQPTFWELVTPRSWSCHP
# Test: ACAT assay, liver microsomes of the fed rats
# Format: biochemical
# Conditions: liver microsomes of rats fed 0.1% in 1% cholesterol diet; Control 0
# Description: To determine the effect of feeding cinnamic acid derivatives to rats on the activity of ACAT, microsomes were separated from liver tissues to be used as an enzyme source.
# 1 g each of the livers taken from each group of rats of Example 2 was homogenized in 5 ml of homogenization medium (0.1 M KH2 PO4, pH 7.4, 0.1 mM EDTA and 10 mM β-mercaptoethanol). The homogenate was centrifuged at 3,000×g for 15 min. at 4° C. and the supernatant thus obtained was centrifuged at 15,000×g for 15 min. at 4° C. to obtain a supernatant. The supernatant was put into an ultracentrifuge tube (Beckman) and centrifuged at 100,000×g for 1 hour at 4° C. to obtain microsomal pellets, which were then suspended in 3 ml of the homogenization medium and centrifuged at 100,000×g for 1 hour at 4° C. The pellets thus obtained were suspended in 1 ml of the homogenization medium. The protein concentration of the resulting suspension was determined by Lowry's method and then adjusted to 4 to 8 mg/ml. The resulting suspension was stored in a deep freezer (Biofreezer, Forma Scientific Inc.).
# 6.67 μl of 1 mg/ml cholesterol solution in acetone was mixed with 6 μl of 10% Triton WR-1339 (Sigma Co.) in acetone and, then, acetone was removed from the mixture by evaporation under a nitrogen flow. Distilled water was added to the resulting mixture to adjust the concentration of cholesterol to […].
# Added to 10 μl of the resulting aqueous cholesterol solution were 10 μl of 1 M KH2 PO4 (pH 7.4), 5 μl of 0.6 mM bovine serum albumin (BSA), 10 μl of microsome solution obtained in (Step 1) and 55 μl of distilled water (total 90 μl). The mixture was pre-incubated in a water bath at 37° C. for 30 min. […]
# 200 μl of the resulting supernatant was put in a scintillation bottle and 4 ml of scintillation fluid (Lumac) was added thereto. The mixture was assayed for radioactivity with 1450 Microbeta liquid scintillation counter (Wallacoy, Finland). ACAT activity was calculated as picomoles of cholesteryl oleate synthesized per min. per mg protein (pmoles/min/mg protein).
row,Inhibition on ACAT activity,SMILES
1,20%,"O=C(O)CCc1ccc(O)c(O)c1 [3,4-dihydroxyhydrocinnamic acid]"
2,7%,"O=C(O)/C=C/c1ccc(O)c(O)c1 [3,4-dihydroxycinnamic acid]"

row,SMILES,Inhibition on ACAT activity
1,"O=C(O)/C=C/c1ccc(O)cc1 [4-Hydroxycinnamic acid, 4-hydroxycinnamic acid]",17%
